Data: US7501281B2, “Compositions, methods and kits related to thrombin, Notch signaling and stamatogenesis and growth of stem cells” (Maine Medical Center Research Institute, priority 2003, dated 2009)

Experiments:
Assay type in all cases: cell-based, murine
[1] = test system: Notch-dependent CSL1 activity in full-length Jagged1 NIH 3T3 cell transfectants; test: Dual Luciferase Reporter Assay of CSL1-dependent transcription
[2] = test system: Swiss 3T3 cells expressing a dominant-negative FGFR1 mutant; test: DNA synthesis assay, (3H)-thymidine autoradiography; conditions: 10 ng/ml FGF1 plus 10 units/ml heparin
Description: A combination of (^3H)-thymidine autoradiography and immunohistochemistry was used to evaluate the levels of DNA synthesis in Swiss 3T3 cells expressing a dominant-negative FGFR1 mutant. Swiss 3T3 cells were plated at 50% confluency on glass coverslips precoated with fibronectin (10 μg/cm^2) for 24 hours. The cells were transfected with the pCS2 vector expressing a dominant-negative X. laevis FGFR1 deletion mutant lacking the FGFR1 intracellular domain (a gift from Dr. R. Friesel) using the Fugene 6 reagent (Roche). After 24 hours, the medium was changed to DMEM containing 0.25% BCS and following a 48 hour incubation in low BCS, the cells were stimulated with either 10 μg/ml of α-thrombin, 10% BCS or 10 ng/ml of recombinant FGF1 plus 10 units/ml of heparin. After stimulation for 24 hours, (^3H)-thymidine (NEN; 1 μCi/ml) was added to the medium and cells were incubated for 12 hours and fixed with 4% neutral formaldehyde. […] The percentage of (^3H)-labeled nuclei among the dnFGFR1-positive and dnFGFR1-negative cells was quantitated using an inverted Olympus microscope.
Thus, a dominant-negative (dn) FGFR1 construct was expressed in Swiss 3T3 cells and their proliferative index measured in the presence and absence of exogenous thrombin.

[3] = test system: NIH 3T3 stable transfectants; test: Analysis of FGF1-induced spheroid formation; conditions: for spheroid formation: 10 ng/ml FGF1, 10 U/ml heparin
Description: Clonal populations of NIH 3T3 stable transfectants were resuspended and grown in media containing 10% BCS, 10% BCS containing 1 μM PD166866, 10% BCS containing 10 ng/ml recombinant human FGF1 and 10 U/ml heparin or 10% BCS containing 10 ng/ml recombinant human FGF1, 10 U/ml heparin and 1 μM PD166866 as indicated in the figure legend. Approximately 2×10^5 cells were plated per well (6-well dish) and three days after plating, phase-contrast micrographs of the cells were taken.

[4] = test system: NIH 3T3 stable transfectants; test: Colony formation in soft agar; conditions: for effect on colonies in soft agar: 10 ng/ml FGF1
Description: Clonal populations of NIH 3T3 cells stably transfected with vector control, soluble Jagged1 (sJ1), constitutively active Notch1 (caN1), constitutively active Notch2 (caN2), dominant negative Notch 1 (dnN1), dominant negative Notch 2 (dnN2), an oncogenic mutant of FGF1 engineered with the FGF4 signal peptide sequence (hst-β (FGF4):FGF1), or constitutively active oncogenic Ras construct (caRas), were plated on 6 cm tissue culture dishes with 0.5% agar in an overlay containing DMEM (Gibco BRL) media, 10% bovine calf serum (BCS; Hyclone), and 0.33% agar at 1.5×10^3 cells/dish. As indicated, some dishes were also treated with 1 μM of the FGFR1-specific inhibitor, PD166866 (Panek et al., 1998, J. Pharmacol. Exp. Ther. 286: 569-577) and/or 10 ng/ml recombinant human FGF1 and 10 U/ml heparin (Sigma). Cells were fed with 0.5 ml of media with or without FGF1 and/or the FGFR1-specific inhibitor every 3 days as indicated. Twenty days after plating, colonies were stained with p-iodonitrotetrazolium violet (Sigma) for visualization. Quantitation of colony formation was achieved by counting all p-iodonitrotetrazolium violet-stained colonies consisting of more than 4 cells under a Zeiss Stemi SVII Apo dissecting microscope.

[5] = test system: caN1/CSL transcription in NIH 3T3 transfectants; test: Transient transfection assay of CSL-regulated transcription; conditions: 1, 2.5, 5 or 10 ng/ml FGF1
Description: NIH 3T3 cells were plated onto fibronectin-coated (10 μg/cm2) 12-well tissue culture dishes and transiently transfected at approximately 80% confluency with 500 ng of a Luciferase construct activated by 4 tandem copies of the CSL (CBF1) response element (Hsieh et al. 1996, Mol. Cell. Biol. 16: 952-959), 100 ng of the TK Renilla (Promega) construct as an internal control for transfection efficiency, and 500 ng of either vector control, sJ1 or caN1 constructs using Fugene 6 (Roche) per manufacturer's instructions. For analysis of caN1 activity in the background of NIH 3T3 stable lines, vector control, caN1, sJ1 and hst-β(FGF4):FGF1 stable transfectants were plated onto fibronectin-coated (10 μg/cm2) 12-well tissue culture dishes and transiently transfected with 500 ng of the CSL-Luciferase construct, 100 ng of the TK Renilla (Promega) construct as an internal control for transfection efficiency, and 200 ng of caN1. […] The cells were harvested 48 hours after the media change and Luciferase/Renilla activity was measured using Promega's Dual-Luciferase Reporter Assay System. The efficiency of transcription was measured and normalized in relationship to the activity of pRL-TK Renilla and the activity is reported as the ratio of Luciferase/Renilla activity. […]

[6] = test system: Jagged1 in NIH 3T3 stable transfectants; test: Immunoblot analysis of Jagged1 expression; conditions: 10 ng/ml FGF1 and 10 U/ml heparin; all stable lines examined
Description: Vector control, SJ1, CaN1, J1, Hstβ(FGF4):FGF1 and sJ1:caN1 stable NIH 3T3 cell transfectants were plated on tissue culture dishes in either normal growth media (DMEM (Gibco BRL) media, 10% bovine calf serum (BCS; Hyclone)) or normal growth media containing 10 ng/ml recombinant FGF1 and 10 U/ml heparin. Cells were harvested at confluency (based on status of vector control cells grown in normal growth media).
Because hst-β(FGF4):FGF1 stable transfectants and the sJ1 transfectants grown in FGF1-containing media form spheroids, all cells were harvested by scraping in the presence of the growth media dn then the cells/growth media was collected into sterile 15 ml conical tubes. Cells were pelleted by centrifugation at 800×g for 5′ at 4° C. After centrifugation, the supernatant was removed and the cell pellets were washed 3× with 1×PBS. Cells were lysed in 500 μl in 20 mM tris, pH 7.5 containing 300 mM sucrose, 60 mM KCl, 15 mM NaCl, 0.5 mM EDTA, 0.5% (v/v) Triton X-100 1 mM Phenymethyl sulfonyl flouride, 0.1% SDS, 2 μg/ml aprotinin, 10 μg/ml aprotinin, 10 μg/ml leupeptin, and 1 mM sodium orthovanadate for 15 minutes on ice. Cell lysates were pelleted and the supernatant containing soluble proteins removed.
Samples were normalized to protein concentration using the BCA Protein Assay Kit (Pierce). […]

## FGF1: recombinant human fibroblast growth factor 1, added with heparin
[1]; 10 ng/ml exogenous FGF1
  CSL1-dependent transcription, of the control level: approximately 25%
[2]
  reduction by dnFGFR1 expression of the ability to induce replicating nuclei: approximately 70%
[3]; Notch-repressed cells (sJ1, dnN1)
  spheroid formation: formed multicellular, spheroid-like structures
[3]; vector control and caN1 transfectants
  spheroid formation: did not form spheroids
[4]; caN1 and vector control transfectants
  effect on colonies in soft agar: either no effect or only resulted in the formation of sparse and very small colonies
[4]; sJ1 and dnN1 transfectants
  effect on colonies in soft agar: greatly exaggerated the size of the colonies
[5]
  effect on caN1/CSL transcription: repressed caN1/CSL transcription in a dose-dependent fashion
[6]
  effect on Jagged1 expression: increased Jagged1 expression

## heparin [reference compound]
[1]; heparin 5 units/ml with thrombin 10 μg/ml
  effect of heparin on thrombin-dependent repression of CSL1-dependent transcription: able to potentiate
[1]; heparin by itself
  effect on CSL1-dependent transcription: ineffective
[1]; heparin in the presence of 10 μM TRAP
  effect on CSL1-dependent transcription: ineffective

## COc1cc(OC)cc(-c2cc3cnc(N)nc3nc2NC(=O)NC(C)(C)C)c1 [PD166866]
[3]; 1 μM PD166866, sJ1, dnN1 and hst-β (FGF4):FGF1 stable transfectants
  effect on FGF1-induced spheroid formation: completely abolished
[4]; 1 μM PD166866, caRas cells
  effect on colony formation: no effect
[4]; 1 μM PD166866, sJ1, dnN1 and hst-β (FGF4):FGF1 transfectants
  effect on FGF1-mediated colony formation: substantially reduced
[4]; 1 μM PD166866, sJ1 and dnN1 in the absence of FGF1
  effect on small colony growth: inhibited
